Where “and” joins values, the source holds several entries; their conditions need not be identical. Equal values may be shown once. Read-outs that look alike come from different tables or passages of the source.

The target of one test is T1, human NTSR2 (Homo sapiens, UniProt O95665).
T1 construct: host or cells: HEK 293T cells, transient transfection
Kind of test: NTSR2 competition binding, membranes of transiently transfected HEK 293T cells, [3H]NT(8-13). To be noted: human NTSR2, HEK 293T membranes, [3H]NT(8-13) 0.50 nM; mean ± SEM. As for the experimental part: (§1) Radioligand binding experiments with the NTSR1 and NTSR2 receptor subtypes were performed as described previously. […] NTSR2 binding was measured using homogenates of membranes from HEK 293T cells, which were transiently transfected with DNA encoding the human NTSR2 (cDNA Resource Center, Bloomsberg, PA, USA) using the Mirus TransIT-293 transfection reagent (Peqlab, Erlangen, Germany). […] Nonspecific binding was determined in the presence of 10 μM NT(8-13), protein concentration was determined by the method of Lowry using bovine serum albumin as a standard. A data analysis of the radioligand displacement curves was accomplished by non-linear regression analysis using the algorithms in PRISM 9.0 (GraphPad Software, San Diego, CA, USA). EC50 values derived from the resulting dose response curves were transformed into the corresponding Ki values applying the equation of Cheng and Prusoff.

Test [1] has as its system NTSR1-positive HT-29 cells. Kind of test: Competitive cellular uptake assay. The test is classed as cell-based. The settings on record: Homo sapiens, 37 °C, 1 h. The protocol:
For the determination of the IC50 values, 8–10 concentrations of FAUC468 were used. The HT-29 cells were seeded on the day of the experiment in a 96-well-plate (~500.000 cells per well in 200 µL cell medium) and were incubated in a humidified atmosphere at 37 °C containing 5% CO2. Subsequently, the 96-well-plate was centrifuged at 850 rpm for 2 min following aspiration of the cell medium. The cells were washed with cell medium (200 µL), the plate was centrifuged at 850 rpm for 2 min, and the supernatant was aspirated. The incubation solutions (0.009–900 nM FAUC468 in 90 µL cell medium per well) and the respective radiotracer (10 µL, 100 kBq per well) were given to the wells, and the plates were incubated at 37 °C for 1 h. After the incubation time, the plate was centrifuged at 850 rpm for 2 min. The supernatant was removed, followed by two washing steps with the cell medium (200 µL) and PBS (200 µL). Sodium hydroxide solution (200 µL, 2 M, 37 °C) was added, and after 7 min, solutions of the cell homogenates were transferred into tubes, which were measured for radioactivity in a γ-counter (Wallac Wizard, Perkin Elmer, Waltham, MA, USA). […]

In a further test the target is human NTSR1 (Homo sapiens, UniProt P30989). Kind of test: NTSR1 competition binding, membranes of CHO cells stably expressing human NTSR1, [3H]neurotensin. To be noted: [3H]neurotensin 0.50 nM, mean ± SEM ([natRe]2: ± SD, n = 2). The protocol: as §1
Another test deals with HT-29 cells. To be noted: cited from earlier work.
The target in another test is NTSR1. Also on record: method as in PMID 33268796. To be noted: cited from earlier work.
The target of a further test is NTSR2. Also noted: method as in PMID 33268796. To be noted: cited from earlier work.

T1 sequence (O95665 whole entry): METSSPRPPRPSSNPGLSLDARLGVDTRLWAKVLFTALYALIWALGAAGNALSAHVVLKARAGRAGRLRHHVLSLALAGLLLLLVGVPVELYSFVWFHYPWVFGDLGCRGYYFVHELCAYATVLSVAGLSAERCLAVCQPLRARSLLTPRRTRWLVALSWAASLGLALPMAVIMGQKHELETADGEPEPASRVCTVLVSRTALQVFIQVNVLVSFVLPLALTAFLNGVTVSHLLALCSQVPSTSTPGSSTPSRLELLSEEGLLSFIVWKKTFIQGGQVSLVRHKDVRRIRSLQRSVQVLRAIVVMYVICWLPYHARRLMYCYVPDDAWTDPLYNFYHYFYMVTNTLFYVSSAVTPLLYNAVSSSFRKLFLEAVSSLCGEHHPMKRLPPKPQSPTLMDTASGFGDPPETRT
Sequence of human NTSR1 (P30989 whole entry): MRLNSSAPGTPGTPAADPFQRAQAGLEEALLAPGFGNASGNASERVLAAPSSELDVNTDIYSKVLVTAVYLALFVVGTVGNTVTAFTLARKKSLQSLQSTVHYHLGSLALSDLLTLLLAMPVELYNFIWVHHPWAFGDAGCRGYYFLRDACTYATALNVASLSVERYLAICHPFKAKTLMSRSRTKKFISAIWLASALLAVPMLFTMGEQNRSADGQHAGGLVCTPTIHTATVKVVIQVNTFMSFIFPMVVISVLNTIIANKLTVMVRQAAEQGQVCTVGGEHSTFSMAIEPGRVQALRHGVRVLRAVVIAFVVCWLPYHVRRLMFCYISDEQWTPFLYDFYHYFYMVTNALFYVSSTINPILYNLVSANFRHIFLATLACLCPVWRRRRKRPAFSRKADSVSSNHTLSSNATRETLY

By Ki is commonly meant a measure of affinity in units of concentration, obtained from inhibition or displacement. As for `COc1cccc(OC)c1-c1cc(C(=O)NC2(C(=O)O)C3CC4CC(C3)CC2C4)nn1-c1ccc(-c2cn(CCCN(C)CCCNC(=O)c3ccc(NN)nc3)nn2)cc1C(C)C` (centres unmarked) [Compound 5, 2-(5-(2,6-Dimethoxyphenyl)-1-(4-(1-(3-((3-(6-hydrazineylnicotinamido)propyl)-(methyl)amino)propyl)-1H-1,2,3-triazol-4-yl)-2-isopropylphenyl)-1H-pyrazole-3-carboxamido)-adamantane-2-carboxylic Acid], at human NTSR2, affinity was put at a Ki of 270 ± 94 nM. By IC50 is commonly meant the point on the concentration scale where inhibition reaches its midpoint. Take `COc1cccc(OC)c1-c1cc(C(=O)NC2(C(=O)O)C3CC4CC(C3)CC2C4)nn1-c1ccc(-c2cn(CCCN(C)CCCNC(=O)CN3CCN(CC(=O)O)CCN(CC(=O)O)CCN(CC(=O)O)CC3)nn2)cc1C(C)C` (centres unmarked) [FAUC468]: the IC50 was 1.93 nM in test [1] (radiotracer [99mTc]1, read-out: IC50 of FAUC468 for the displacement of [99mTc]1) and 3.12 nM in test [1] (radiotracer [99mTc]2, read-out: IC50 of FAUC468 for the displacement of [99mTc]2). Moreover, the figures for the Ki on human NTSR2 and on human NTSR1 were 100 ± 3 nM and 1.9 ± 0.7 nM, respectively.

On to `COc1cccc(OC)c1-c1cc(C(=O)NC2(C(=O)O)C3CC4CC(C3)CC2C4)nn1-c1ccc(C(=O)N(C)CCCN(C)C)cc1C(C)C` (centres unmarked) [SR 142948A], for which, in the test on HT-29 cells, the 50% inhibitory concentration (IC50) is 0.32 nM. `COc1cccc(OC)c1-c1cc(C(=O)NC2(C(=O)O)C3CC4CC(C3)CC2C4)nn1-c1ccnc2cc(Cl)ccc12` (centres unmarked) [SR 48692]: the IC50 in the test on HT-29 cells ([125I-Tyr3]NT(8-13) as radioligand) is 30 nM. On to `COc1cccc(OC)c1-c1cc(C(=O)NC2(C(=O)O)C3CC4CC(C3)CC2C4)nn1-c1ccc(-c2cn(CCCN(C)CCCNC(=O)CCn3cc(CC(N)C(=O)O)nn3)nn2)cc1C(C)C` (centres unmarked) [Compound 6, 2-(1-(4-(1-(3-((3-(3-(4-(2-Amino-2-carboxyethyl)-1H-1,2,3-triazol-1-yl)-propanamido)propyl)(methyl)amino)propyl)-1H-1,2,3-triazol-4-yl)-2-isopropylphenyl)-5-(2,6-dimethoxyphenyl)-1H-pyrazole-3-carboxamido)adamantane-2-carboxylic Acid], for which the Ki on human NTSR2 was 85 ± 13 nM; on human NTSR1, 0.3 nM and 0.32 nM. For “NTS: 13-amino-acid peptide originally isolated from bovine hypothalami”, the Ki at NTSR1 was 0.15 to 0.5 nM; on NTSR2, 5 to 7 nM.

The record behind these values is PMC12196348, “^99mTc-Labeled Diarylpyrazoles for Single-Emission Computer Tomography Imaging of Neurotensin Receptor-Positive Tumors: A Comparative Preclinical Study” (Pharmaceutics, 2025).
